Results from US20040234517A1, “Compositions and methods for diagnosing and treating asthma or other allergic or inflammatory diseases” (WYETH, priority 2003, published 2004).
Like-named read-outs stand apart in the source and are kept apart here.

Experiments:
arginase [1] = experiment: arginase activity in internal anal sphincter
arginase [2] = settings: read-out: IC50 hydrolysis of L-arginine to L-ornithine; unstimulated murine macrophages (Tenu et al.); cited from earlier work
arginase [3] = settings: IFN-gamma+LPS-stimulated macrophage; cited from earlier work
arginase [4] = experiment: arginase activity of murine macrophages (hydrolysis of L-arginine to L-ornithine); assay type: cell-based; settings: unstimulated murine macrophages
From the text: Stimulation of murine macrophages with interferon-gamma and lipopolysaccharide (IFN-gamma+LPS) results in clear expression of an inducible NOS (iNOS) and to an increase in arginase activity.

iNOS = iNOS (Mus musculus, UniProt P29477); settings: cited from earlier work
arginase [5] = settings: intact cells; cited from earlier work
IL-13 [6] = experiment: lung ARG1 mRNA expression after ovalbumin allergen challenge; assay type: in vivo, Balb/c mice; settings: mouse lung
Experimental: Balb/c mice were immunized by an intraperitoneal (i.p.) injection of 10 μg of OVA (Sigma, St. Louis, Mo.) in 200 μl of PBS on day 0. On days 14 and 25 mice were anesthetized with a mixture of ketamine and xylazine (45 and 8 mg/kg, respectively) and challenged intratracheally with 50 μl of a 1.5% solution of OVA or an equivalent volume of PBS. Mice were injected i.p. either with 100 μl of PBS, hIgG (400 μg/ml) or sIL-13α2-Fc (400 μg/ml) on days 24, 25 and 27. Purification of hIgG was carried according to Urban et al., Immunity 8(2): […], 1998. Lungs were collected and snap frozen for RNA isolation on day 28.
To identify changes in mRNA concentration dependent on IL-13 mediated signal transduction, two of the OVA-challenged mice were treated with three intraperitoneal injections of the soluble IL-13 receptor fusion protein, sIL-13Rα2-Fc, prior to and during the course of the allergic challenge. As control for the Fc-moiety of the receptor fusion protein, two of the OVA-challenged mice were similarly treated with intraperitoneal administration of hIgG. […]
Balb/C-treated and untreated mice were sensitized to OVA, treated with PBS, rIL-13 or sIL13Rα2.Fc as described in FIG. 1. Total lung RNA was isolated and analyzed for ARG1 expression as described in Example 2. The mRNA frequency is expressed as parts per million.

IL-13 [7] = experiment: OVA-challenge asthma model: mucus production and airway hyperresponsiveness; assay type: in vivo, mouse; settings: FIG. 12 legend
From the text: It is generally accepted that allergic asthma is initiated by an inappropriate inflammatory reaction to airborne allergens. […] One murine model of asthma involves sensitization of the animal to ovalbumin (OVA) followed by intratracheal delivery of the OVA challenge. […] The cytokine IL-13, expressed by basophils, mast cells, activated T cells and NK cells, plays a central role in the inflammatory response to OVA in mouse lungs. […] Thus, IL-13 mediated signaling is sufficient to elicit all four asthma-related pathophysiological phenotypes and is required for the hypersecretion of mucous and induced AHR in the mouse model.
FIG. 12 is a graphical representation showing that ARG1 mRNA expression increases following direct pulmonary instillation of rIL-13 or intratracheal Ovalbumin allergen challenge. Blockade of IL-13 signaling by administration of sIL13Rα2.Fc inhibits 67% of induced Arg1 mRNA expression. Blockade of IL-13 using the soluble receptor sIL13Rα2.Fc inhibits the allergen induced mucus production and airway hyperresponsiveness (AHR).

IL-13 [8] = settings: mouse model, background; cited from earlier work

N[C@@H](CCCCB(O)O)C(=O)O [ABH, 2(S)-amino-6-boronohexanoic acid]
potency relative to L-NOHA in inhibiting arginase activity (arginase [1]): approximately 250 times

N=C(NO)NCC[C@H](N)C(=O)O [nor-NOHA, N(omega)-hydroxy-L-nor-arginine]
IC50 (arginase [2]): 12 µM
IC50 (arginase [3]): 10 µM
potency relative to L-NOHA (arginase [4]): about 40 fold
substrate or inhibitor for iNOS (iNOS): neither a substrate nor an inhibitor

NCCC[C@](N)(C(=O)O)C(F)F [DFMO, α-difluoromethylornithine]
effect on the flux of L-arginine through arginase (arginase [5]): inhibitive effect

B1: sIL13Rα2.Fc: soluble IL-13 receptor fusion protein, a soluble IL-13 antagonist (protein)
chain: DTEIKVNPPQDFEIVDPGYLGYLYLQWQPPLSLDHFKECTVEYELKYRNIGSETWKTIITKNLHYKDGFDLNKGIEAKIHTLLPWQCTNGSEVQSSWAETTYWISPQGIPETKVQDMDCVYYNWQYLLCSWKPGIGVLLDTNYNLFYWYEGLDHALQCVDYIKADGQNIGCRFPYLEASDYKDFYICVNGSSENKPIRSSYFTFQLQNIVKPLPPVYLTFTRESSCEIKLKWSIPLGPIPARCFDYEIEIREDDTTLVTATVENETYTLKTTNETRQLCFVVRSKVNIYCSDDGIWSEWSDKQCWEGEDLSKKTLLR
modifications: left off: a dimerising Fc or GST
notes: soluble IL-13 receptor fusion protein, a soluble IL-13 antagonist
inhibition of induced Arg1 mRNA expression (IL-13 [6]): 67%
allergen induced mucus production and airway hyperresponsiveness (AHR) (IL-13 [7]): inhibits
OVA-challenge induced goblet cell mucus synthesis and AHR to acetylcholine (IL-13 [8]): completely blocked
